Structures are written as SMILES. “Also recorded” adds a separate entry of the source. Counter-ions that a name gives are not always drawn. Like-named read-outs stand apart in the source and are kept apart here.

Here are results for 13 molecules from US8895598B2, “Methods of treating a flaviviridae family viral infection, compositions for treating a flaviviridae family viral infection, and screening assays for identifying compositions for treating a flaviviridae family viral infection” (priority 2007, dated 2014).

Data set [1] concerns HCV RNA replication (full-length HCV RNA genome harboring a Luciferase reporter gene). Briefly: Luciferase reporter-linked HCV replication assay in Huh7.5 cells. In kind it is cell-based, Hepatitis C Virus. The conditions noted are these: for activity at 5 µM / activity at 10 µM: Hepatitis C virus, Huh7.5. The method, then: For example, HCV replication assays employing a luciferase reporter-linked HCV genome in the presence of various combinations of clemizole and an NS3 protease inhibitor (SCH503034) are shown in FIGS. 1A and 1B. In such assays, luciferase activity is directly proportional to HCV RNA genome replication. […] The results can be plotted on a linear or log scale as a function of drug concentrations to generate replication inhibition curves.
Luciferase assays were performed at 72 hr.
Medium was changed daily.
The experiment was repeated four times, each time with triplicates.

In data set [2] the target is HuR binding to the consensus 4A RNA sequence (Homo sapiens, UniProt Q15717). In words: Specificity: HuR binding to 4A RNA by microfluidics. The conditions noted are these: hits at 0.1 mM. The procedure:
Next a standard 25 μL TNT T7 coupled wheat germ extract mixture (Promega) was prepared and spiked with 1 μL tRNALys-bodipy-fl (Promega) and 2 μL of plasmid DNA template coding for the appropriate protein (HuR, HuD or Gus). The mixture was immediately loaded into the device and flushed for 5 min, after which the chamber valves were opened allowing for dead end filling of the chambers with wheat germ extract. The chamber valves were again closed and flushing continued for an additional 5 min. Next the segregation valves separating each unit cell were closed, followed by opening of the chamber valves allowing for equilibration of the unit cell by diffusion. The entire device was heated to 30° C. on a temperature controlled microscope stage and incubated for up to 90 min to complete protein synthesis, binding of protein to the surface bound biotinylated-5-histidine antibody, solvation of target RNA, and equilibration of proteins and target RNA. […] Radial closure prevents solvent pockets from forming between the two interfaces and effectively creates zero dead volume while preserving the equilibrium concentrations of the molecular interactions to be detected. This was followed by a 5 min PBS wash to remove untapped unbound material. The device was then imaged on a modified array WoRxe (AppliedPrecision) microarray scanner to detect protein synthesis and the trapped molecules. […]

The target of data set [3] is HuR binding to the 3′ terminus of the negative HCV RNA strand (Homo sapiens, UniProt Q15717). Briefly: Specificity: HuR binding to the 3′ terminus of the negative HCV RNA strand. The conditions noted are these: hits at 0.1 mM. The procedure: Specificity of hits identified in the small molecule screen: To determine the specificity of the hits identified in the small molecule screen, the HuR protein (one of the human RNA binding protein used to validate our RNA binding assay) was selected. […] Binding of HuR to the consensus 4A RNA sequence was tested in the presence of the inhibitory molecules shown to inhibit RNA binding by NS4B. […] Similarly, 0.1 mM of the identified compounds didn't have an inhibitory effect on binding of HuR to the 3′ terminus of the negative HCV RNA strand.

Another data set concerns R214Q mutant HCV RNA. Briefly: Luciferase reporter linked replication assay with the clemizole-resistant R214Q mutant. Type of data set: cell-based. The conditions noted are these: Hepatitis C virus, read-out: EC50 on the R214Q mutant. (In general: Reporter assays use an easily measured gene product as a stand-in for the process of interest.)
Another data set concerns Huh7.5 cells. Briefly: Alamar Blue-based viability assay. The conditions noted are these: HCV-infected Huh7.5 cells, FIG. 15. The method, then: (§1) The in vivo antiviral effect on HCV RNA replication of the inhibitory compounds identified in the above screen was measured. Following electroporation with a full-length HCV RNA genome harboring a Luciferase reporter gene^28, Huh7.5 cells were grown in the presence of increasing concentrations of these compounds. Luciferase assays were performed at 72 hr. In parallel, the viability of cells in the presence of the compounds was assessed by an Alamar Blue-based assay.
(§2) Following 72 hrs of treatment, cells were incubated for 3 hrs at 37° C. in the presence of 10% Alamar Blue reagent (TREK Diagnostic Systems). Plates were then scanned and fluorescence was detected by using FLEXstation II 384 (Molecular Devices, Inc.).

The test system of a further data set is W55R mutant J6/JFH RNA. Briefly: Replication assays with the clemizole-resistant W55R mutant. In kind it is cell-based, Hepatitis C Virus.
The conditions of data set [4]: cited from earlier work.
In data set [5] the target is T1, W55R NS4B mutant binding to HCV RNA (Hepatitis C virus genotype 1a, UniProt P27958, A1893V/D1840G/F1898S/L1839I/R1905H/S1900A/W1766R).
T1 construct: made in house; host or cells: coupled transcription/translation rabbit reticulocyte system (Promega) with canine microsomal membranes
Briefly: Microfluidic in vitro RNA binding assay of W55R NS4B mutant. The conditions noted are these: in the presence of 10 nM clemizole.

Another data set concerns HCV (genotype 4). In words: Treatment of patients chronically infected with HCV, serum HCV viral load. Type of data set: in vivo, human. The method, then: Three patients chronically-infected with HCV (genotype 4) were treated in accordance with an embodiment of the method of the invention. All were male and had baseline ALT elevations and significant HCV viral loads ranging from 290,000-730,000 IU/ml.
After the first four weeks of clemizole monotherapy, pegylated interferon was added.

The conditions of data set [6]: human, in vivo; cited from earlier work.
For data set [7] the following is noted: guinea pig; cited from earlier work.
Data set [8] addresses NS4B binding to the 3′ terminus of the HCV negative strand RNA (Hepatitis C virus genotype 1a, UniProt P27958). In words: Microfluidic (MITOMI) in vitro RNA binding assay of NS4B.
For data set [9], the system named is infectious HCV clone (J6/JFH). In kind it is cell-based, Hepatitis C Virus. The conditions noted are these: FIG. 15, 72 hours.
Data set [10] is described as follows: Alamar Blue-based viability assay. The conditions noted are these: human. The procedure: as §1, §2
A general note: The colour change of resazurin is a common sign of viable cells or microbes.

[11] abbreviates: read-out: AV (HCV RNA replication, percent of normal activity remaining).
Where [12] appears, read: read-out: AV score (binned residual HCV replication).
Where [13] appears, read: 40 to 160 mg/day, 1 to 12 weeks.
The mark [14] stands for this setting: 3 patients, clemizole 100 mg po BID monotherapy.

For `Cc1nc2cc(Cl)ccc2n1Cc1ccccc1`, in data set [1] (setting [11]), the activity at 5 µM is 87% and the activity at 10 µM came out at 60%. For the same molecule, in data set [1] (setting [12]), the activity at 5 µM fell in the range of 60 to 90% and the activity at 10 µM is 60 to 90%.
With `Clc1ccc(Cn2c(CN3CCCC3)nc3ccccc32)cc1` [Clemizole hydrochloride, clemizole hydrochloride, reference compound], in data set [1] (20 μM, 72 hr), the “decrease in viral replication” value is listed as “tenfold”.
Turning to `COC(=O)c1ccc(Cn2cnc3ccccc32)cc1`, the figures for the activity at 5 µM in [1] (setting [11]) and in data set [1] (setting [12]) were 74% and 60 to 90%, respectively. For the same molecule, the values for the activity at 10 µM in [1] (setting [11]) and in data set [1] (setting [12]) were 54% and 30 to 60%, respectively.
Consider `Cc1nc2ccccc2n1Cc1ccc(Br)cc1`, for which, in data set [1] (setting [11]), the activity at 5 µM came to 3% and the activity at 10 µM was determined as 2%. In data set [1] (setting [12]), the activity at 5 µM was in the range of 10 to 30% and the activity at 10 µM was 10 to 30%.
For `O=C(O)C1=CC(=C(c2ccc(O)c(C(=O)O)c2)c2ccc(O)c(C(=O)O)c2)C=CC1=O` [ATA, Aurintricarboxilic acid], the “effect on binding of HuR to 4A RNA” value in [2] is “significantly inhibited; also recorded: affected”. Also, the “effect on binding of HuR to the 3′ terminus of the negative HCV RNA strand” value in data set [3] is “significantly inhibited”.
Regarding `Cc1cc2ncn(Cc3ccc(Cl)cc3Cl)c2cc1C`, in data set [1] (setting [11]), the activity at 5 µM is 30% and the activity at 10 µM was determined as 8%. In data set [1] (setting [12]), the activity at 5 µM is 10 to 30% and the activity at 10 µM lay in the range of 10 to 30%.
With `COc1ccc(Cn2cnc3ccccc32)cc1`, in data set [1] (setting [11]), the activity at 5 µM was found to be 70% and the activity at 10 µM was 58%. In [1] (setting [12]), the activity at 5 µM is 60 to 90% and the activity at 10 µM was in the range of 30 to 60%.
One may read the IC50 as the concentration needed to halve the response being measured. A high value points to weaker potency in that assay. As for `Clc1ccc(Cn2c(CN3CCCC3)nc3ccccc32)cc1` [clemizole], in the data set with R214Q mutant HCV RNA, the EC50 was 40.3 µM. In [1] (SCH503034 1-5 micromolar, 72 hours), the “effect of adding clemizole to NS3 protease inhibitor SCH503034 on HCV replication” value is given as “increase the inhibition of HCV replication in a dose-dependent manner by up to several logs”. In the data set on Huh7.5 cells, the “toxicity to the cell in real-time PCR experiment” value is reported as “no measurable toxicity to the cell”. In addition, the “replication of W55R mutant in presence of clemizole” value with W55R mutant J6/JFH RNA (10 μM clemizole, whole cell RNA (colonies) or in vitro-transcribed luciferase RNA) is listed as “unaffected”. Also, the EC50 with W55R mutant J6/JFH RNA (Hepatitis C virus, read-out: EC50 on the W55R mutant J6/JFH RNA) was roughly 18 µM. Further, in data set [4] (setting [13]), the “patients reporting excellent relief of itching” value was 66% and the “patients reporting good relief of itching” value is recorded as 23%. In data set [4] (human, in vivo), the “patients with mild side effects (drowsiness most common)” value was 4 patients. Moreover, the “effect on binding of HuR to 4A RNA” value in data set [2] was “No inhibitory effect”. In [5], the “reduction of RNA binding of W55R NS4B mutant” value was roughly 2 fold. Moreover, in the data set on HCV (genotype 4) (setting [14]), the “HCV viral load at week 2” value was “drops in HCV viral load” and the “HCV viral load at week 4” value is “nearly at or below the limit of HCV detection; also recorded: completely, or nearly, undetectable”. Moreover, the “HCV viral load after 8 weeks” value in the data set with HCV (genotype 4) (4 weeks clemizole monotherapy plus 4 weeks clemizole with standard dose pegylated interferon) was “below the limit of detection”. Further, the “drowsiness, share of the patients treated (Zierz and Greither)” value in data set [6] is 1.3%. Besides, the “prevention of histamine-induced asthma” value in data set [7] was “superior to atropine and other antihistamines in preventing histamine-induced asthma”. In [8], this molecule gave an IC50 of roughly 0.024 µM. In addition, the “reduction of RNA binding of wild type NS4B” value in data set [8] (in the presence of 10 nM clemizole) is roughly 2 fold. Further, the “HCV replication levels by real-time PCR” value in data set [9] is “inhibits HCV replication”.
Turning to `CC(C)(C)c1ccc(Cn2cnc3ccccc32)cc1`, in data set [1] (setting [11]), the activity at 5 µM turned out to be 30% and the activity at 10 µM worked out at 12%. In [1] (setting [12]), the activity at 5 µM is 10 to 30% and the activity at 10 µM was 10 to 30%.
For the molecule `OCc1nc2ccccc2n1Cc1ccc(Br)cc1`, in [1] (setting [12]), the activity at 5 µM was 30 to 60% and the activity at 10 µM lay in the range of 10 to 30%. Besides, the activity at 10 µM in data set [1] (setting [11]) was 28%.
On to `Brc1ccc(Cn2cnc3ccccc32)cc1`, for which, in data set [1] (setting [11]), the activity at 5 µM stood at 23% and the activity at 10 µM came out at 8%. Also, in data set [1] (setting [12]), the activity at 5 µM lay in the range of 10 to 30% and the activity at 10 µM lay in the range of 10 to 30%.
On to `Cc1ccc(Cn2cnc3ccccc32)cc1`, for which, in data set [1] (setting [11]), the activity at 5 µM was 49% and the activity at 10 µM amounted to 23%. In data set [1] (setting [12]), the activity at 5 µM is 30 to 60% and the activity at 10 µM fell in the range of 10 to 30%.
As usually defined, the viability is a read-out of living cells in per cent, often relative to untreated cells. Regarding `Clc1ccc(Cn2c(CN3CCCC3)nc3ccccc32)cc1` [drawing 415], in data set [1] (setting [11]), the activity at 5 µM turned out to be 62% and the activity at 10 µM came out at 37%. Moreover, in data set [1] (setting [12]), the activity at 5 µM fell in the range of 60 to 90% and the activity at 10 µM lay in the range of 30 to 60%. In [10], the viability at 72 h, 5 µM stood at 107% and the viability at 72 h, 10 µM amounted to 93%.
